Each structure is given as a SMILES string.

For 49 compounds, inhibition and IL-1β % inhibition results are on record in patent publication US7297700B2, “Bicycloheteroaryl compounds as P2X7 modulators and uses thereof” (Renovis, Inc., priority 2005, dated 2007).

For the first test, the system named is IL-1β release from THP-1 cells. As to the kind of experiment: IL-1β Release Assay (Alternate Method), THP-1 cells. It is filed as cell-based, human. The following applies: Homo sapiens, THP-1, read-out: IL-1β % inhibition. A digest of the protocol:
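THP-1 cells differentiated 16 h with 100 ng/mL LPS plus 100 ng/mL IFN-γ, reprimed 2 h with 100 ng/mL LPS, pretreated 30 min with compound, then challenged 45 min with 250 uM BzATP (final). Supernatant IL-1β quantified by ELISA; percent inhibition from background-adjusted levels versus untreated cells.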
Consider `O=C(CC12CC3CC(CC(C3)C1)C2)Nc1ncnc2c1CCN(CCCO)C2` [Compound 19, 2-adamantan-1-yl-N-[7-(3-hydroxy-propyl)-5,6,7,8-tetrahydro-pyrido[3,4-d]pyrimidin-4-yl]-acetamide], for which the inhibition at 0.3 µM lay within 0 to 25%.

Still in this test, the particulars now being: at 0.3 μM; THP-1 cells.
With `O=C(CC12CC3CC(CC(C3)C1)C2)Nc1ncnc2c1CCN(C(=O)CCC1CCCC1)C2` [Compound 231], the IL-1β % inhibition entry is reported as “++ (compound exhibited 25-50% inhibition at 0.3 μM)”. Regarding `CC(=O)N1CCc2c(ncnc2NC(=O)CC23CC4CC(CC(C4)C2)C3)C1` [Compound 219], the IL-1β % inhibition entry is “+ (compound exhibited 0-25% inhibition at 0.3 μM)”. On to `O=C(CC12CC3CC(CC(C3)C1)C2)Nc1ncnc2c1CCN(C(=O)c1cc(F)ccc1F)C2` [Compound 279], for which the IL-1β % inhibition result is “++++ (compound exhibited 75% or greater inhibition at 0.3 μM)”.

`O=C(CC12CC3CC(CC(C3)C1)C2)Nc1ncnc2c1CCN(Cc1ccncc1)C2` [Compound 43]: the IL-1β % inhibition entry is given as “+ (compound exhibited 0-25% inhibition at 0.3 μM)”.

Consider `O=C(CC12CC3CC(CC(C3)C1)C2)Nc1ncnc2c1CCN(C(=O)c1cccc(C(F)(F)F)c1)C2` [Compound 233], for which the IL-1β % inhibition entry is recorded as “++++ (compound exhibited 75% or greater inhibition at 0.3 μM)”. With `O=C(CC12CC3CC(CC(C3)C1)C2)Nc1ncnc2c1CCN(Cc1cc(F)ccc1C(F)(F)F)C2` [Compound 96], the IL-1β % inhibition result is on record as “+ (compound exhibited 0-25% inhibition at 0.3 μM)”. Consider `Cc1ccccc1CN1CCc2c(ncnc2NC(=O)CC23CC4CC(CC(C4)C2)C3)C1` [Compound 31], for which the IL-1β % inhibition entry is reported as “+++ (compound exhibited 50-75% inhibition at 0.3 μM)”. With `O=C(CC12CC3CC(CC(C3)C1)C2)Nc1ncnc2c1CCN(S(=O)(=O)Cc1cc(Cl)cc(Cl)c1)C2` [Compound 186], the IL-1β % inhibition entry is “++++ (compound exhibited 75% or greater inhibition at 0.3 μM)”. In the case of `O=C(CC12CC3CC(CC(C3)C1)C2)Nc1ncnc2c1CCN(C(=O)C1CCCC1)C2` [Compound 238], the IL-1β % inhibition result was “++++ (compound exhibited 75% or greater inhibition at 0.3 μM)”.

In the case of `O=C(O)C=Cc1ccc(CN2CCc3c(ncnc3NC(=O)CC34CC5CC(CC(C5)C3)C4)C2)cc1` [Compound 115], the IL-1β % inhibition entry is listed as “+ (compound exhibited 0-25% inhibition at 0.3 μM)”. As for `O=C(CC12CC3CC(CC(C3)C1)C2)Nc1ncnc2c1CCN(S(=O)(=O)c1ccc(Oc3ccccn3)cc1)C2` [Compound 172], the IL-1β % inhibition result is reported as “+++ (compound exhibited 50-75% inhibition at 0.3 μM)”.

Take `O=C(CC12CC3CC(CC(C3)C1)C2)Nc1ncnc2c1CCN(Cc1ccc3c(c1)CCO3)C2` [Compound 105]: the IL-1β % inhibition entry is “+ (compound exhibited 0-25% inhibition at 0.3 μM)”. Same read-out and setting: for `Cc1ccccc1CN1CCc2c(ncnc2C(=O)NCC23CC4CC(CC(C4)C2)C3)C1` [Compound 336] the value was “++++ (compound exhibited 75% or greater inhibition at 0.3 μM)”; for `COc1ccccc1C(=O)N1CCc2c(ncnc2NC(=O)CC23CC4CC(CC(C4)C2)C3)C1` [Compound 292], “+++ (compound exhibited 50-75% inhibition at 0.3 μM)”. In the case of `CC(C)(C(=O)Nc1ncnc2c1CCN(Cc1ccc(F)cc1F)C2)C12CC3CC(CC(C3)C1)C2` [Compound 347], the IL-1β % inhibition result is “+ (compound exhibited 0-25% inhibition at 0.3 μM)”. On to `O=C(CC12CC3CC(CC(C3)C1)C2)Nc1ncnc2c1CCN(C(=O)C1CCCN1C(=O)C(F)(F)F)C2` (stereo not shown) [Compound 306], for which the IL-1β % inhibition result is on record as “+ (compound exhibited 0-25% inhibition at 0.3 μM)”. In the case of `COc1ccc(CN2CCc3c(ncnc3NC(=O)CC34CC5CC(CC(C5)C3)C4)C2)cc1F` [Compound 119], the IL-1β % inhibition result was “++ (compound exhibited 25-50% inhibition at 0.3 μM)”. Consider `COCC(=O)N1CCc2c(ncnc2NC(=O)CC23CC4CC(CC(C4)C2)C3)C1` [Compound 240], for which the IL-1β % inhibition result is listed as “+ (compound exhibited 0-25% inhibition at 0.3 μM)”. As for `Cc1cc(C(=O)N2CCc3c(ncnc3NC(=O)CC34CC5CC(CC(C5)C3)C4)C2)n(C)n1` [Compound 285], the IL-1β % inhibition entry is “+ (compound exhibited 0-25% inhibition at 0.3 μM)”. Take `O=C(CC1CCCCC1)Nc1ncnc2c1CCN(CCCO)C2` [Compound 21]: the IL-1β % inhibition result is on record as “+ (compound exhibited 0-25% inhibition at 0.3 μM)”. In the case of `O=C(CC12CC3CC(CC(C3)C1)C2)Nc1ncnc2c1CCN(Cc1cccc(F)c1)C2` [Compound 33], the IL-1β % inhibition entry is listed as “+ (compound exhibited 0-25% inhibition at 0.3 μM)”. For `CC(C)(C(=O)Nc1ncnc2c1CCN(S(=O)(=O)Cc1ccccc1)C2)C12CC3CC(CC(C3)C1)C2` [Compound 353], the IL-1β % inhibition result is “+ (compound exhibited 0-25% inhibition at 0.3 μM)”. Consider `O=C(CC12CC3CC(CC(C3)C1)C2)Nc1ncnc2c1CCN(C(=O)COc1ccccc1)C2` [Compound 249], for which the IL-1β % inhibition entry is reported as “+ (compound exhibited 0-25% inhibition at 0.3 μM)”.

As to `O=C(CC12CC3CC(CC(C3)C1)C2)Nc1ncnc2c1CCN(Cc1ccc(Cl)cc1F)C2` [Compound 328], the IL-1β % inhibition entry is recorded as “+++ (compound exhibited 50-75% inhibition at 0.3 μM)”.

Regarding `O=C(CC12CC3CC(CC(C3)C1)C2)Nc1ncnc2c1CCN(C(=O)c1ccc(OC(F)(F)F)cc1)C2` [Compound 228], the IL-1β % inhibition entry is “+ (compound exhibited 0-25% inhibition at 0.3 μM)”. As to `Cc1cc(CN2CCc3c(ncnc3NC(=O)CC34CC5CC(CC(C5)C3)C4)C2)ccc1F` [Compound 86], the IL-1β % inhibition entry is reported as “++ (compound exhibited 25-50% inhibition at 0.3 μM)”.

Take `Cc1nn(-c2ccccc2)nc1C(=O)N1CCc2c(ncnc2NC(=O)CC23CC4CC(CC(C4)C2)C3)C1` [Compound 273]: the IL-1β % inhibition entry was “++++ (compound exhibited 75% or greater inhibition at 0.3 μM)”. On the same count and under the same terms, the entry for `O=C(c1cccc(F)c1)N1CCc2c(ncnc2NC(=O)C23CC4CC(CC(C4)C2)C3)C1` [Compound 400] is “+ (compound exhibited 0-25% inhibition at 0.3 μM)”; for `CC(C)(C(=O)Nc1ncnc2c1CCN(C(=O)c1c(F)cccc1Cl)C2)C12CC3CC(CC(C3)C1)C2` [Compound 362] it is “+ (compound exhibited 0-25% inhibition at 0.3 μM)”; for `Cc1ccc(C(=O)N2CCc3c(ncnc3NC(=O)CC34CC5CC(CC(C5)C3)C4)C2)cc1` [Compound 291] it is “++++ (compound exhibited 75% or greater inhibition at 0.3 μM)”.

For the compound `O=C(NCC12CC3CC(CC(C3)C1)C2)c1ncnc2c1CCN(Cc1cccc(F)c1)C2` [Compound 316], the IL-1β % inhibition entry is “+ (compound exhibited 0-25% inhibition at 0.3 μM)”. As for `O=C(CC12CC3CC(CC(C3)C1)C2)Nc1ncnc2c1CCN(Cc1ccccc1OC(F)(F)F)C2` [Compound 76], the IL-1β % inhibition entry is “+ (compound exhibited 0-25% inhibition at 0.3 μM)”. As for `O=C(CC12CC3CC(CC(C3)C1)C2)Nc1ncnc2c1CCN(Cc1ccc3ccccc3n1)C2` [Compound 73], the IL-1β % inhibition result is reported as “+ (compound exhibited 0-25% inhibition at 0.3 μM)”.

The same test, now with this note: at 0.3 μM; THP-1 cells, BzATP-stimulated.
As for `O=C(c1ccc(Cl)cc1Cl)N1CCc2c(ncnc2NC(=O)C23CC4CC(CC(C4)C2)C3)C1` [Compound 430], the IL-1β % inhibition result is listed as “++ (compound exhibited 25-50% inhibition at 0.3 μM)”. Turning to `O=C(c1cc(Cl)cc(Cl)c1)N1CCc2c(ncnc2NC(=O)C23CC4CC(CC(C4)C2)C3)C1` [Compound 479], the IL-1β % inhibition entry is listed as “+ (compound exhibited 0-25% inhibition at 0.3 μM)”. The same measure, in the same setting: for `O=C(Nc1ncnc2c1CCN(Cc1ccc3ccccc3c1)C2)C12CC3CC(CC(C3)C1)C2` [Compound 565] the value was “++++ (compound exhibited 75% or greater inhibition at 0.3 μM)”; for `COc1cccc(C(=O)N2CCc3c(ncnc3NC(=O)C34CC5CC(CC(C5)C3)C4)C2)c1` [Compound 422], “++ (compound exhibited 25-50% inhibition at 0.3 μM)”; for `O=C(Nc1ncnc2c1CCN(Cc1ccc(C(F)(F)F)cc1)C2)C12CC3CC(CC(C3)C1)C2` [Compound 604], “++++ (compound exhibited 75% or greater inhibition at 0.3 μM)”. `O=C(c1ccc(C(F)(F)F)cc1)N1CCc2c(ncnc2NC(=O)C23CC4CC(CC(C4)C2)C3)C1` [Compound 415]: the IL-1β % inhibition entry was “+ (compound exhibited 0-25% inhibition at 0.3 μM)”. Consider `O=C(Nc1ncnc2c1CCN(S(=O)(=O)c1ccc(F)cc1Cl)C2)C12CC3CC(CC(C3)C1)C2` [Compound 545], for which the IL-1β % inhibition entry is on record as “++ (compound exhibited 25-50% inhibition at 0.3 μM)”. For the compound `COc1ccc(CN2CCc3c(ncnc3NC(=O)C34CC5CC(CC(C5)C3)C4)C2)cc1OCc1ccccc1` [Compound 592], the IL-1β % inhibition result is listed as “++++ (compound exhibited 75% or greater inhibition at 0.3 μM)”.

In the case of `O=C(Nc1ncnc2c1CCN(S(=O)(=O)c1ccc3c(c1)OCCO3)C2)C12CC3CC(CC(C3)C1)C2` [Compound 534], the IL-1β % inhibition result is “+++ (compound exhibited 50-75% inhibition at 0.3 μM)”. On to `O=C(Nc1ncnc2c1CCN(S(=O)(=O)c1ccccc1-c1ccccc1)C2)C12CC3CC(CC(C3)C1)C2` [Compound 527], for which the IL-1β % inhibition result is given as “+++ (compound exhibited 50-75% inhibition at 0.3 μM)”.

For `O=C(Nc1ncnc2c1CCN(Cc1ccc(OC(F)F)cc1)C2)C12CC3CC(CC(C3)C1)C2` [Compound 621], the IL-1β % inhibition entry is reported as “+++ (compound exhibited 50-75% inhibition at 0.3 μM)”. Take `O=C(Nc1ncnc2c1CCN(Cc1ccc(Br)nc1)C2)C12CC3CC(CC(C3)C1)C2` [Compound 613]: the IL-1β % inhibition entry was “+ (compound exhibited 0-25% inhibition at 0.3 μM)”. Take `CC(C)CCN1CCc2c(ncnc2NC(=O)C23CC4CC(CC(C4)C2)C3)C1` [Compound 583]: the IL-1β % inhibition entry was “+ (compound exhibited 0-25% inhibition at 0.3 μM)”. As for `N#Cc1cccc(C(=O)N2CCc3c(ncnc3NC(=O)C34CC5CC(CC(C5)C3)C4)C2)c1` [Compound 414], the IL-1β % inhibition result is recorded as “++ (compound exhibited 25-50% inhibition at 0.3 μM)”. Consider `COc1ccc(C(=O)N2CCc3c(ncnc3NC(=O)C34CC5CC(CC(C5)C3)C4)C2)cc1OC` [Compound 476], for which the IL-1β % inhibition result was “++ (compound exhibited 25-50% inhibition at 0.3 μM)”.
